Laboratory results published in patent US7015207B2, “Use of N-acetyl-D-glucosamine in the manufacture of pharmaceutical useful for preventing and treating sexual disorder” (Third Military Medical University, Chinese People's …, priority 2001, dated 2006).

Assays:
sexual disfunction [1] = assay: Test for volunteers (voluntary patient with disfunction for more than ten years); type: in vivo, human; conditions: one voluntary patient, 12 capsules (500 mg/grain) by oral in three days
Proteus Mirabilis = assay: Promoting wave test (bacterial bio-wave growth model); type: cell-based; conditions: final concentration of 0.5% on LB plate, 37° C.
Excerpt: The following experimental examples are used to illustrate the promoting wave function, low toxicity and effectiveness for preventing and treating the sexual disfunction of the compound of the present invention (the compound of formula (I)). • I. Promoting wave test of the compound of formula (I) • 1. Experimental materials and method: • 1.1 Samples: pure compound of formula (I) • 1.2 Experimental materials: […]
Strain: Proteus Mirabilis (which should comply with the following biological reaction characteristics: dynamics (+), urease (+), lactose (−), glucose (+), H2S (−), phenylalanine deaminase (+).
Culture medium: modified LB culture medium (the component of the composition are: trytones of 1%, yeast extract of 0.5%, sodium chloride 1%, glucose of 0.1%, TTC of 0.002% and pH=7.2˜7.4). • 1.3 Experimental method:
Experimental results and evaluation:
The experiment adopts a bio-wave model which is used to research the promoting wave function of the compound of formula (I). […] Toxicological test of the compound of formula (I), including: • 1. acute toxicity test: including tests of administrating medicine by oral, intravenous injection and maximum limit amount for administration; • 2. […]

sexual disfunction [2] = assay: Clinic tests in male patients with sexual disfunction; type: in vivo, human; conditions: two weeks
Protocol: 32 examples of male patients were picked out, who had been repeatedly treated for sexual disfunction with current treatment method, but these treatments were failed, the patients are classified clinically into heavy, medium and light degree disease, separately administrated with N-acetyl-D-glucosamine in the form of capsule by oral (500 mg/day) and alcoholic solution (50 mg/1000 ml) by oral (10 ml/day), using two weeks as a period of treatment, and before and after the administration, and comparing the condition of the patient's symptom by detecting luteinizing hormone (LH), follicular stimulating hormone (FSH), prolactin (PRL), testosterone (T), estradiol (E2) and local blood flux. […] After treatment, the curative effect was steady and could be maintained for a long time.

[3] = 32 male patients, capsule 500 mg/day or alcoholic solution 10 ml/day by oral

In the case of CC(=O)N[C@@H]1[C@@H](O)[C@H](O)[C@@H](CO)O[C@H]1O [N-acetyl-D-glucosamine], the “duration of the effect” value (sexual disfunction [1]) is reported as “keep normal over two years”, the “sexual function after treatment” value (sexual disfunction [1]) is reported as “sexual function was recovered to normal” and the “promoting wave function (wave pattern of concentric rings compared with control)” value (Proteus Mirabilis) is reported as “many fine waves on each ring emerged”. The cure rate (sexual disfunction [2]; [3]) was 72%, the total effective rate (sexual disfunction [2]; [3]) was 90% and the “patients in whom treatment failed” value (sexual disfunction [2]; of 32 male patients, oral) was 2 patients. For the same compound, the “patients turned from heavy and medium degree into light degree” value (sexual disfunction [2]; of 32 male patients, oral) was 7 patient and the “patients who became normal after treatment” value (sexual disfunction [2]; of 32 male patients, oral) was 23 patients.
